One test addresses T1, tSH2R192A of ZAP-70 (Homo sapiens, UniProt P43403).
T1 sequence (P43403 1-256 R190A): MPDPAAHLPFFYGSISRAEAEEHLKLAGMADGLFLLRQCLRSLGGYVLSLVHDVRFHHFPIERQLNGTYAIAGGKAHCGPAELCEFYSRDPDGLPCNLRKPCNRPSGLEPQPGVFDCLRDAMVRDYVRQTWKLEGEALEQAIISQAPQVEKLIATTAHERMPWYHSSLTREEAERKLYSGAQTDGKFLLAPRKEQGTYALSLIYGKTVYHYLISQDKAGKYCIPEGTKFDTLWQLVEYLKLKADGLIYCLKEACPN
Description: Isothermal titration calorimetry, ZAP-70 tSH2R192A (C-SH2 mutant). (In general: ITC needs no label: the signal is the heat of the interaction.)

The next test deals with T2, Syk tSH2 domain (Homo sapiens, UniProt P43405).
T2 construct: Syk tSH2 (7–263), cloned in pGEX6P1 vector; GST (N, cleaved yes); host or cells: E. coli BL21(DE3)
Description: Steady-state intrinsic tryptophan fluorescence titration, Syk tSH2. The test is classed as binding. The following applies: 25 °C, 0.5 μM tSH2, SD from three independent experiments. As to the method:
(§1) The dissociation constant ( Kd ) was derived by fitting the normalized intensity (F0/F) versus ligand concentration using the following equation: F0/F=Bmax∗X^nH/(Kd^nH+X^nH) where F0 and F is fluorescence intensity in absence and presence of ligand, respectively. Bmax is the maximum binding, and nH is the Hill coefficient. The Hill coefficient (nH) was also determined from Hill plot ([70]).

A further test concerns the target T3, tSH2 domain of ZAP-70 (Homo sapiens, UniProt P43403).
T3 construct: ZAP-70 tSH2 WT (1–256), cloned in pSKB2 vector; made in house; host or cells: E. coli BL21(DE3)
T3 sequence (P43403 1-256): T1 sequence (P43403 1-256 R190A) with A190R
Description: Steady-state intrinsic tryptophan fluorescence titration, ZAP-70 tSH2 wild type. The test is classed as binding. As to the method:
as §1

The next test has as its target T4, ZAP-70 tSH2 domain (Homo sapiens, UniProt P43403).
T4 construct: ZAP-70 tSH2 WT (1–256), cloned in pSKB2 vector; made in house; host or cells: E. coli BL21(DE3)
T4 sequence (P43403 1-256): T1 sequence (P43403 1-256 R190A) with A190R
Description: Stopped-flow fluorescence binding kinetics, ZAP-70 tSH2 wild type. To be noted: 10 °C. The protocol:
We observed that the fluorescence intensity decay in two steps, fast (<200 ms) and slow (>20 s) (Fig. 3A). […] All kinetic data were first normalized against the highest intensity and then subtracted by the blank (protein only sample) (Fig. 3, A and B) and fitted to a one-site association kinetics (Table 1).
The change in fluorescence intensity was measured at λex 290 nm, λem 350 nm, and 10 °C ([71]). […] Each transient was measured over 200s (for slow kinetics) or 1s (for fast kinetics), interval with 1500 and 101 time points, respectively. For each sample, a blank dataset was recorded by measuring the change in intensity for protein only. Each data set was normalized against the maximum intensity observed for the respective sample at time 0. The normalized sample was further corrected by blank subtraction. The observed rate (kobs) was derived by fitting the change in intensity with respect to time by fitting to association kinetics equation implemented in Prism. Y=Y0+(Ymax−Y0)(1−e^[…]) where, Y0 is the intensity at time 0, Ymax is the maximum intensity, k is rate constant.

Changes are numbered by the printed parent chain. Where “and” joins values, the source holds several entries; their conditions need not be identical. Equal values may be shown once. Where a SMILES comes first, the peptide text is derived from it. [ ]: non-standard residue; d: D form. pY = N[C@@H](Cc1ccc(OP(=O)(O)O)cc1)C(=O)O

Description for tSH2R192A of ZAP-70: We probed Kd1 and Kd1∗ by fluorescence spectroscopy and Kd2 and Kd1∗ by ITC. To probe the Kd2 , we used ^tSH2R190A mutant that impairs phosphotyrosine binding to C-SH2 PBP (Figs. 1E and S1F).
ITC studies were carried out using Malvern-PEAQ_ITC at 20 °C. […] The Kd , ΔH, and ΔS were fitted into two-site sequential fit using ORIGIN as described previously ([33]). In the ITC experiments with C-SH2 domain mutant (R190A), the protein was buffer exchanged to 20 mM Hepes pH 8.2, 150 mM NaCl, and 5 mM β-mercaptoethanol.

Broadly, the Kd is a measure of binding affinity in units of concentration. A high value points to weaker binding. Take `CC(C)C[C@H](NC(=O)[C@H](CC(N)=O)NC(=O)[C@H](CC(C)C)NC(=O)[C@H](CCC(=O)O)NC(=O)[C@H](CC(N)=O)NC(=O)[C@H](Cc1ccc(OP(=O)(O)O)cc1)NC(=O)[C@H](CC(C)C)NC(=O)[C@H](CCC(N)=O)NC(=O)[C@@H](N)CC(N)=O)C(=O)NCC(=O)N[C@@H](CCCNC(=N)N)C(=O)N[C@@H](CCCNC(=N)N)C(=O)N[C@@H](C)C(=O)N[C@@H](CCC(=O)O)C(=O)N[C@@H](Cc1ccc(OP(=O)(O)O)cc1)C(=O)N[C@@H](CC(=O)O)C(=O)N[C@H](C(=O)N[C@@H](CC(C)C)C(=O)N[C@@H](CC(=O)O)C(=O)O)C(C)C` [ITAM-Y2P-ζ1 E13A]: at tSH2R192A of ZAP-70, the Kd was 9.8 ± 0.75 µM.
Regarding `CC(C)C[C@H](NC(=O)CNC(=O)[C@@H](N)CC(=O)O)C(=O)N[C@@H](Cc1ccc(OP(=O)(O)O)cc1)C(=O)N[C@@H](CCC(N)=O)C(=O)NCC(=O)N[C@@H](CC(C)C)C(=O)N[C@@H](CO)C(=O)N[C@H](C(=O)N[C@@H](C)C(=O)N[C@H](C(=O)N[C@@H](CCCCN)C(=O)N[C@@H](CC(=O)O)C(=O)N[C@H](C(=O)N[C@@H](Cc1ccc(OP(=O)(O)O)cc1)C(=O)N[C@@H](CC(=O)O)C(=O)N[C@@H](C)C(=O)N[C@@H](CC(C)C)C(=O)N[C@@H](Cc1c[nH]cn1)C(=O)O)[C@@H](C)O)[C@@H](C)O)[C@@H](C)O` [ITAM-Y2P-ζ3] (H-DGL[pY]QGLSTATKDT[pY]DALH-OH), the Kd on Syk tSH2 domain is 0.0698 µM and 0.065 to 0.07 µM; on tSH2R192A of ZAP-70, 12 ± 0.9 µM.
For `CC(C)C[C@H](NC(=O)[C@H](CC(N)=O)NC(=O)[C@H](CC(C)C)NC(=O)[C@H](CCC(=O)O)NC(=O)[C@H](CC(N)=O)NC(=O)[C@H](Cc1ccc(OP(=O)(O)O)cc1)NC(=O)[C@H](CC(C)C)NC(=O)[C@H](CCC(N)=O)NC(=O)[C@@H](N)CC(N)=O)C(=O)NCC(=O)N[C@@H](CCCNC(=N)N)C(=O)N[C@@H](CCCNC(=N)N)C(=O)N[C@@H](CCC(=O)O)C(=O)N[C@@H](CCC(=O)O)C(=O)N[C@@H](Cc1ccc(O)cc1)C(=O)N[C@@H](CC(=O)O)C(=O)N[C@H](C(=O)N[C@@H](CC(C)C)C(=O)N[C@@H](CC(=O)O)C(=O)O)C(C)C` [ITAM-YP-ζ1], the “Subsequent (second) binding step” value at tSH2 domain of ZAP-70 is on record as “no subsequent binding was observed”. Further, the kobsfast at ZAP-70 tSH2 domain (100 nM tSH2, 30 μM peptide, 20 mM Tris pH 8.0, 150 mM NaCl, 5% glycerol, 5 mM β-mercaptoethanol, λex 290/λem 350 nm, 1 s transients, SD from three independent experiments) worked out at 28.60 ± 5.84 s⁻¹. Moreover, the “Slow binding step (in words)” value on ZAP-70 tSH2 domain (wild-type tSH2) is “no detectable slow binding”.

Values taken from PMC9486129, “An evolutionary divergent thermodynamic brake in ZAP-70 fine-tunes the kinetic proofreading in T cells” (The Journal of Biological Chemistry, 2022).
